Measurements taken from patent US11833116B2 (TCI CO., LTD., priority 2020, dated 2023).

Assays:
Atg1 gene = test: Antiaging-related gene expression in PBMC cells (qRT-PCR): Atg1; format: cell-based, human; conditions: 0.25 vol %, 24 hours, control group = 1.00
Description: (§1) Herein, the tested antiaging-related genes are antiaging genes including CCT5 gene (Gene ID: 22948), CCT6A gene (Gene ID: 908), CCT7 gene (Gene ID: 10574), CCT8 gene (Gene ID: 10694), PARP2 gene (Gene ID: 10038), Parkin gene (Gene ID: 5071), Atg1 gene (Gene ID: 8408), Arg8 gene (Gene ID: 11345), FOX) gene (Gene ID: 2308), SIRT1 gene (Gene ID: 23411), […] gene (Gene ID: 55191), and MRPS3 gene (Gene ID: 64969). A medium used was an X-VIVOTM 15 serum-free hematopoietic cell medium (manufacturer: Lonza; product No.: 04-[…]) supplemented with 10 vol % of fetal bovine serum (FBS; brand: Gibco) and 1 vol % of penicillin/streptomycin (brand: Gibco), hereinafter referred to as a cell medium. […] Then, by using an ABI StepOnePlusTM Real-Time PCR system (Thermo Fisher Scientific Company, USA), KAPA SYBR FAST (purchased from Sigma Company, USA, No. 38220000000) and primers of Table 1 (SEQ ID NO: 1 to SEQ ID NO: 24), a quantitative real-time reverse transcription polymerase chain reaction was performed on the cDNA of each group to observe the expression levels of antiaging-related genes in PBMC cells. […] Herein, the quantitative real-time reverse transcription polymerase chain reaction of the cDNA can indirectly quantify an mRNA expression level of a gene, and then infer the expression level of protein encoded by the gene. […]

CCT5 gene = test: Antiaging-related gene expression in PBMC cells (qRT-PCR): CCT5; format: cell-based, human; conditions: 0.25 vol %, 24 hours, control group = 1.00
Description: as §1

[1] = system: mouse brain neuroblastoma cells (Neuro2a); test: Inhibition of ROS generation (hydrogen peroxide treatment), DCFH-DA flow cytometry; format: cell-based
Description: A medium used was a DMEM medium (Dulbecco's Modified Eagle Medium; brand: Gibco) supplemented with 10 vol % of fetal bovine serum (FBS; brand: Gibco) and 1 vol % of penicillin/streptomycin (brand: Gibco), hereinafter referred to as a cell medium. A DCFH-DA solution used was a reaction solution prepared by dissolving 2,7-dichloro-dihydro-fluorescein diacetate (DCFH-DA, product code SI-D6883, purchased from Sigma) in dimethyl sulfoxide (DMSO, purchased from Sigma, product code SI-D6883-50MG). […]
Flow cytometry (manufacturer: Beckman; Catalog No. 660519) was used to detect a fluorescence signal of DCFH-DA in the cell solutions to be assayed in each group. The excitation wavelength of fluorescence detection used was 450 nm to 490 nm, and the emission wavelength was 510 nm to 550 nm. Since DCFH-DA will first be hydrolyzed to DCFH (dichloro-dihydro-fluorescein) after entering the Neuro2a cells, and then oxidized by reactive oxygen species (ROS) into DCF (dichloro-fluorescein) that emits green fluorescence, the fluorescence intensity of the Neuro2a cells treated with the DCFH-DA can reflect the content of reactive oxygen species (ROS) in the Neuro2a cells, and from this, the ratio of the number of cells with highly expressed reactive oxygen species (ROS) in the Neuro2a cells to the number of original cells can be known.

SIRT1 gene = test: Antiaging-related gene expression in PBMC cells (qRT-PCR): SIRT1; format: cell-based, human; conditions: 0.25 vol %, 24 hours, control group = 1.00
Description: as §1

PARP2 gene = test: Antiaging-related gene expression in PBMC cells (qRT-PCR): PARP2; format: cell-based, human; conditions: 0.25 vol %, 24 hours, control group = 1.00
Description: as §1

CCT7 gene = test: Antiaging-related gene expression in PBMC cells (qRT-PCR): CCT7; format: cell-based, human; conditions: 0.25 vol %, 24 hours, control group = 1.00
Description: as §1

CCT6A gene = test: Antiaging-related gene expression in PBMC cells (qRT-PCR): CCT6A; format: cell-based, human; conditions: 0.25 vol %, 24 hours, control group = 1.00
Description: as §1

CCT8 gene = test: Antiaging-related gene expression in PBMC cells (qRT-PCR): CCT8; format: cell-based, human; conditions: 0.25 vol %, 24 hours, control group = 1.00
Description: as §1

Parkin gene = test: Antiaging-related gene expression in PBMC cells (qRT-PCR): Parkin; format: cell-based, human; conditions: 0.25 vol %, 24 hours, control group = 1.00
Description: Herein, the tested antiaging-related genes are antiaging genes including CCT5 gene (Gene ID: 22948), CCT6A gene (Gene ID: 908), CCT7 gene (Gene ID: 10574), CCT8 gene (Gene ID: 10694), PARP2 gene (Gene ID: 10038), Parkin gene (Gene ID: 5071), Atg1 gene (Gene ID: 8408), Arg8 gene (Gene ID: 11345), FOX) gene (Gene ID: 2308), SIRT1 gene (Gene ID: 23411), NADSYN gene (Gene ID: 55191), and MRPS3 gene (Gene ID: 64969).
A medium used was an X-VIVO™ 15 serum-free hematopoietic cell medium (manufacturer: Lonza; product No.: 04-418Q) supplemented with 10 vol % of fetal bovine serum (FBS; brand: Gibco) and 1 vol % of penicillin/streptomycin (brand: Gibco), hereinafter referred to as a cell medium. […]
PBMC cells were collected from each group, and RNA of each group was extracted with an RNA extraction reagent kit (purchased from Geneaid, Taiwan, China, Lot No. FC24015-G). […] Then, by using an ABI StepOnePlus™ Real-Time PCR system (Thermo Fisher Scientific Company, USA), KAPA SYBR FAST (purchased from Sigma Company, USA, No. 38220000000) and primers of Table 1 (SEQ ID NO: 1 to SEQ ID NO: 24), a quantitative real-time reverse transcription polymerase chain reaction was performed on the cDNA of each group to observe the expression levels of antiaging-related genes in PBMC cells. […]

MRPS5 gene = test: Antiaging-related gene expression in PBMC cells (qRT-PCR): MRPS5; format: cell-based, human; conditions: 0.25 vol %, 24 hours, control group = 1.00
Description: as §1

FOXO gene = test: Antiaging-related gene expression in PBMC cells (qRT-PCR): FOXO; format: cell-based, human; conditions: 0.25 vol %, 24 hours, control group = 1.00
Description: as §1

[2] = system: mouse brain neuroblastoma cells (Neuro2a); test: Mitochondrial activity (JC-1 mitochondrial membrane potential, flow cytometry); format: cell-based; conditions: 0.25 vol %, 24 hours, control group = 100%
Description: A medium used was a DMEM medium (Dulbecco's Modified Eagle Medium; brand: Gibco) supplemented with 10 vol % of fetal bovine serum (FBS; brand: Gibco) and 1 vol % of penicillin/streptomycin (brand: Gibco), hereinafter referred to as a cell medium. A mitochondrial activity test method used was to use a mitochondrial membrane potential detection kit (BD™ MitoScreen (JC-1) kit, model 551302) to measure the mitochondrial membrane potential and perform mitochondrial activity analysis. The mitochondrial membrane potential detection kit included a JC-1 stain (freeze-dried) and a 10×assay buffer. Before use, the 10×assay buffer was diluted 10 times with 1×PBS to form a 1×assay buffer. 130 μL of DMSO was added to the JC-1 stain (freeze-dried) to form a JC-1 stock solution. Then, the JC-1 stock solution was diluted with the 1×assay buffer to form a JC-1 working solution (JC-1 mitochondrial specific stain). The dilution ratio of the JC-1 stock solution to the 1×assay buffer was 1:100.
First, 1×10^5 mouse neuroblastoma cells (ATCC CCL-131; hereinafter referred to as Neuro2a cells) were added into a six-well cell culture plate containing 2 mL of the above cell medium per well, and cultured at 37° C. for 24 hours. […]

NADSYN gene = test: Antiaging-related gene expression in PBMC cells (qRT-PCR): NADSYN; format: cell-based, human; conditions: 0.25 vol %, 24 hours, control group = 1.00
Description: as §1

Atg8 gene = test: Antiaging-related gene expression in PBMC cells (qRT-PCR): Atg8; format: cell-based, human; conditions: 0.25 vol %, 24 hours, control group = 1.00
Description: as §1

NC(=O)c1ccc[n+]([C@@H]2O[C@H](COP(=O)([O-])O)[C@@H](O)[C@H]2O)c1 [nicotinamide mononucleotide]
relative expression of the Atg1 gene (Atg1 gene): 1.25 | relative expression of the CCT5 gene (CCT5 gene): 1.55 | relative ROS production ([1]; 24 h with 0.25 vol % yeast powder or 10 μL of 200 mM synthetic NMN, then hydrogen peroxide 1 hour, blank group = 100%, H2O2 control group 487.6%): 452.5% | decrease in relative ROS production versus H2O2 control (percentage points, blank = 100%) ([1]; hydrogen peroxide, versus control group 487.6%): 35.1% | relative expression of the SIRT1 gene (SIRT1 gene): 4.30 | relative expression of the PARP2 gene (PARP2 gene): 0.67 | relative expression of the CCT7 gene (CCT7 gene): 1.0672 | relative expression of the CCT6A gene (CCT6A gene): 1.62 | relative expression of the CCT8 gene (CCT8 gene): 1.72 | relative expression of the Parkin gene (Parkin gene): 1.61 | relative expression of the MRPS5 gene (MRPS5 gene): 0.80 | relative expression of the FOXO gene (FOXO gene): 0.79 | relative JC-1 accumulation [2]: 42.93% | relative expression of the NADSYN gene (NADSYN gene): 5.84 | relative expression of the Atg8 gene (Atg8 gene): 1.02
